According to patent US20220280614A1 (CASE WESTERN RESERVE UNIVERSITY, priority 2019, published 2022):

system: male Sprague-Dawley rats (ca. 300 g) rendered diabetic by streptozotocin; assay: Biological activity and pharmacodynamics (blood glucose over time) after subcutaneous injection in diabetic rats; assay type: in vivo, rat; settings: premixed clear solution of SCI-A and SCI-B, unbuffered, pH 4.0, FIGS. 8-10
Experimental: FIG. 7 is a graph showing blood glucose levels over time for diabetic rats (time 0 blood glucose of 375±20 mg/dl) injected subcutaneously with indicated analogue/300 g body weight.
FIG. 8 is a graph showing blood glucose levels over time for diabetic rats (time 0 blood glucose of 350-400 [±20 mg/dl]) injected subcutaneously with 1 unit of the indicated analog/300 g body weight. ( ? ) diluent control; (●) an SCI-A (SEQ ID NO: 5); (●) an example of an SCI-B (SEQ ID NO: 6) as formulated at neutral pH; and (♦) equimolar premixed clear solution of this SCI-A and this specific SCI-B as formulated in soluble form in an unbuffered solution at pH 4.0. Respective doses: 20 μg of each protein per 300 gram rat (singly); 20 μg and 20 μg in the case of the premixed solution to a total [SCI-A+SCI-B] combined dose of 40 μg.
FIG. 9 is a graph showing blood glucose levels over time for diabetic rats (time 0 blood glucose of 400±20 mg/dl) injected subcutaneously with indicated analogue/300 g body weight. […] Respective doses: 0.75 units SCI-A, 0.25 units SCI-B; and premixture of 0.75 units SCI-A and 0.25 units SCI-B.
FIG. 10 is a graph showing blood glucose levels over time for diabetic rats (time 0 blood glucose of 385±20 mg/dl) injected subcutaneously with indicated analogue/300 g body weight. […] Respective doses: 0.75 units SCI-A, 0.25 units SCI-B; and premixture of 0.75 units SCI-A and 0.25 units SCI-B.
Biological activity and pharmacodynamics were tested in male Sprague-Dawley rats (ca. 300 g) rendered diabetic by streptozotocin (FIG. 7).
Each of the three SCI-B analogues contained a six-residue C domain and an A-domain substitution known in the art to enhance stability and receptor-binding affinity (HisA8). The first SCI-B (SEQ ID NO: 6; FIG. 8) contained C domain sequence EEGPRR (positions 31-36). This analogue also contained insulin-moiety substitutions GluA14 and GluB29. The second example of an SCI-B (SEQ ID NO: 7; FIG. 9) contained C domain sequence EAAAAA (positions 31-36) and insulin-moiety substitutions GluA14, AspB28 and ProB29. […]

Row | Substance | effect of premixed SCI-A (SEQ ID NO: 5) on the rapid initial phase of insulin action of the SCI-B component
1 | SEQ ID NO: 6: single-chain insulin analogue SCI-B, C domain EEGPRR, substitutions GluA14 and GluB29; rapid-acting component (FVNQHLCGSHLVEALYLVCGERGFFYTPETEEGPRRGIVEQCCTSICSLEQLENYCN) | did not blunt or prevent the premixed SCI-B component from directing a rapid initial phase of insulin action
2 | SEQ ID NO: 7: single-chain insulin analogue SCI-B, C domain EAAAAA, substitutions GluA14, AspB28 and ProB29 (FVNQHLCGSHLVEALYLVCGERGFFYTDPTEAAAAAGIVEQCCTSICSLEQLENYCN) | did not blunt or prevent the premixed SCI-B component from directing a rapid initial phase of insulin action
3 | SEQ ID NO: 8: single-chain insulin analogue SCI-B, C domain EAAARA, substitutions GluA14, AspB28 and ProB29 (FVNQHLCGSHLVEALYLVCGERGFFYTDPTEAAARAGIVEQCCTSICSLEQLENYCN) | did not blunt or prevent the premixed SCI-B component from directing a rapid initial phase of insulin action
